Here are results for one substance from US7851436B2, “Inhibition of migration and induction of cell death by the type II collagen amino propeptides” (Washington University, priority 2007, dated 2010).

“Also recorded” adds a separate entry of the source. Some results are limits rather than exact numbers.

One experiment concerns the target T1, αV integrin (Homo sapiens, UniProt P06756).
T1 construct: Cell homogenates were then mixed with GST, PIIBNP, or mPIIBNP; endogenous in cells; host or cells: Ch-1 human chondrosarcoma cell lysate
In words: Integrin αV immunoprecipitation. In kind it is binding. Conditions: Ch-1 cell lysates. The protocol:
Integrin αV Immunoprecipitation. Ch-1 cells were lysed in lysis buffer (50 mM Hepes-KOH [pH 7.4]; 150 mM NaCl; 1% Triton X-100; 10% glycerol; 1 mM EGTA; 1 mM EDTA; 10 mM sodium pyrophosphate; 100 mM sodium fluoride; 0.2 mM sodium orthovanadate; supplemented with the proteinase inhibitors cocktail (Sigma) overnight at 4° C. Cell homogenates were then mixed with GST, PIIBNP, or mPIIBNP and incubated for 1 hours at room temperature. Protein A agarose (Sigma) previously bound with integrin αV antibody was incubated with cell homogenate mixture for 4 h at 4° C. with gentle shaking. After washing (5 mins.×3), the precipitated material was analyzed by SDS-PAGE and detected with chicken anti PIIBNP antibody.

A further experiment relates to HeLa 229 cells. The experiment in a line: Cell survival assay in HeLa 229 cells. In kind it is cell-based, human. On the procedure:
(§1) Cell Culture. Human Chondrosarcoma cell line (Ch-1) was isolated from a portion of chondrosarcoma tumor. […] HUVEC cells were a gift from Dr. William Frazier (Washington University) and were cultured in M199 Earle's medium with 10 units/ml of penicillin, 5 μg/ml streptomycin and 0.25 μg/ml Fungizone supplemented with 10% FBS, 0.1 mg/ml L-glutamine, 25 mM Hepes, 16 units/ml of heparin (Sigma) and 0.1 mg/ml endothelial cell mitogen (Biochemical Technologies).
(§2) Detection of Cell Death. Cells were cultured to confluence in a 24-well plate pre-coated with type I collagen, fibronectin (Sigma), and ECM Matrigel (Becton Dickinson). Proteins in serum-free medium were added to the cells. Cells were monitored by light microscopy and images were digitally photographed using a Q capture Retiga 2000R camera. Quantification of cells remaining in the well was performed by washing with PBS for three times, fixing with 4% paraformaldehyde. The cells per field (×400) were counted for three field per well (3 wells per measurement). The mean number and standard deviation (SD) were calculated.

The test system of a further experiment is MDA-MB231 cells. The experiment in a line: Cell survival assay in MDA-MB231 cells. Format: cell-based, human. The protocol: as §1, §2
For experiment [1], the system named is HUVEC cells. In words: Tube formation assay. Format: cell-based, human. The protocol: Tube Formation Assay. The tube formation assay using HUVEC cells was performed as described with some modification. Briefly, a suspension of 7.5×10^4 cells/well in complete medium was seeded into a Matrigel-coated 24-well plate in the presence of recombinant PIIBNP or GST (0-10 μM). The formation of tubes was evaluated using light microscopy and quantification was performed using a Q Capture Pro imaging software. Branch points per field were counted from three fields for each treatment.

In experiment [2] the test system is HUVEC cells. In words: HUVEC cell death. Format: cell-based, human. On the procedure:
FIG. 6 depicts photographs and graphs showing that PIIBNP inhibits angiogenesis. […] Quantification of tube formation was calculated based on branch points per field of view (FIG. 6C) for each treatment ranging from 0.1 μM to 10 μM of PIIBNP. […] GST (▴) and PIIANP (●) had no effect on the cells.
As a second test for angiogenesis, we tested the ability of PIIBNP to inhibit outgrowth of endogenous endothelial cells from freshly isolated rat aorta. […] In order to determine whether PIIBNP caused endothelial cell death, the number of HUVEC cells present after incubation with PIIBNP was determined (FIGS. 6E and 8). Tube formation was inhibited by 50% with 0.1 μM PIIBNP, with no cell death. […] Consequently, PIIBNP can inhibit angiogenesis in a cell line and in endogenous endothelial cells mediated by integrins αVβ3 and αVβ5.

Another experiment concerns mouse osteoclast cells. In words: Osteoclast viability (trypan blue exclusion). Format: cell-based. Conditions: 16 hours at 37° C. On the procedure:
FIG. 10 depicts a graph showing mouse chondrogenic cells (ATDC5), mouse osteoblast cells, and mouse osteoclast cells treated with recombinant GST, PIIBNP or mPIIBNP proteins for 16 hours at 37° C. The cells were trypsinized and cell viability was assayed using a trypan blue exclusion based cell counting. PPIIBNP induced death in osteoclasts that resorb the bone, but not the osteoblasts that form bone.

T1 sequence (P06756 31-889 limits assumed): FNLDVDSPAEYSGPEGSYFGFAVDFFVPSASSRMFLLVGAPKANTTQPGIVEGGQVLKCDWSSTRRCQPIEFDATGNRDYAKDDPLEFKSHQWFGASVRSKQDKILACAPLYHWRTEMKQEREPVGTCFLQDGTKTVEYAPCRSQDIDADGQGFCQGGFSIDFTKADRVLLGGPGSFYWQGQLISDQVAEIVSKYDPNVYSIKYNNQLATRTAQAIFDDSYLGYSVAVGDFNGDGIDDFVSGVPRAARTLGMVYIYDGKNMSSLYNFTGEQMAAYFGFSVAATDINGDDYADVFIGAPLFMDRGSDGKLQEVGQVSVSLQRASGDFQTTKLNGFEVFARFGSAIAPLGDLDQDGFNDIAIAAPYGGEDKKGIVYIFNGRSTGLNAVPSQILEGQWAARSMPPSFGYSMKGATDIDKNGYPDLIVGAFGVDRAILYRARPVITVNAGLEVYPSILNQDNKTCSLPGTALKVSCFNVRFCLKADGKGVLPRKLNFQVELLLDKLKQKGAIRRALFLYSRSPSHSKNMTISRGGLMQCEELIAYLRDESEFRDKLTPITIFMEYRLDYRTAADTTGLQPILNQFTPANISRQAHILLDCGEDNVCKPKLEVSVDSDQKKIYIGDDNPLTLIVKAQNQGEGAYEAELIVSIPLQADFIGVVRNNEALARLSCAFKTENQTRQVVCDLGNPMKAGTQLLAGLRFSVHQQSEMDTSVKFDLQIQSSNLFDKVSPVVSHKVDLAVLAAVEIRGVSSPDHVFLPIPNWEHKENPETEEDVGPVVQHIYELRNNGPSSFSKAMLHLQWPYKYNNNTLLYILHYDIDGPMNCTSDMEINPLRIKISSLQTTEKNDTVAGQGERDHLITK
T1 sequence (P06756 891-1048 limits assumed): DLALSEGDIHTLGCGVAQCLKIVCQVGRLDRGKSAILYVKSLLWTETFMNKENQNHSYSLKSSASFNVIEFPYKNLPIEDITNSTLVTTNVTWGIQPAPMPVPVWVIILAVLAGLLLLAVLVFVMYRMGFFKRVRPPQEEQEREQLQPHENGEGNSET

For “PIIBNP: Recombinant human Type IIB procollagen NH2-propeptide (exons 3-8, lacking exon 2), expressed as GST fusion protein”, the “immunoprecipitation with αV integrin specific antibody” value with αV integrin is listed as “immunoprecipitated”. Moreover, the cell death is above 80% in the experiment with HeLa 229 cells (HeLa 229 cells, FIG. 4M) and above 70% in the experiment on MDA-MB231 cells (MDA-MB231 cells, FIG. 4L). In the experiment with HeLa 229 cells (HeLa cells), this substance gave a survival of 20%. This substance yielded a cell survival with MDA-MB231 cells (MDA cells) of 30%. Also, the tube formation inhibited with HUVEC cells [1] (0.1 μM) is on record as 50%. In addition, the “inhibition of tube formation” value with HUVEC cells [1] (Matrigel-coated plates, 0-10 μM) is “able to inhibit the formation of tubes in a dose-dependent manner”. The HUVEC cell death result with HUVEC cells [2] (0.1 μM) is “no cell death”; with HUVEC cells [2] (60 hrs, 37° C., higher concentrations) it was “cell death was induced; also recorded: caused cell death in a concentration-dependent manner”. Further, the “induction of osteoclast death” value in the experiment with mouse osteoclast cells (listed as PPIIBNP) is “induced death”; in the experiment on mouse osteoclast cells (listed as Type IIB propeptide), “induced the death”.
